Measurements: ChEMBL document CHEMBL3638995, “Disubstituted 3,4-diamino-3-cyclobutene-1,2-dione compounds for use in the treatment of chemokine-mediated pathologies” (2015)

What was measured:
[1] = molecular target: T1, C-X-C chemokine receptor type 2 (Homo sapiens, UniProt P25025); test: (§1) Assay Drug Dev Technol. 2007 February; 5(1); 137-44).; assay type: cell-based
T1 sequence (P25025 whole entry): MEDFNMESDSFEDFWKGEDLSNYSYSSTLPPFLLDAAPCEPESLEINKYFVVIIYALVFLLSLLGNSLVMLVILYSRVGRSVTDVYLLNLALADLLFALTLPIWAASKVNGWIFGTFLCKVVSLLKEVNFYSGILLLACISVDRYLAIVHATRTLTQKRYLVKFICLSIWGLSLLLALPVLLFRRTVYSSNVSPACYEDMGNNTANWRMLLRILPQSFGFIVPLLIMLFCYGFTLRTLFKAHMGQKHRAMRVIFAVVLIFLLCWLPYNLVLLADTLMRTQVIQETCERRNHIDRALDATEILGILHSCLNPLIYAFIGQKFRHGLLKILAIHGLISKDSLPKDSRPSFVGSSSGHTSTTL

[2] = molecular target: T2, C-X-C chemokine receptor type 1 (Homo sapiens, UniProt P25024); test: as §1; assay type: cell-based
T2 sequence (P25024 whole entry): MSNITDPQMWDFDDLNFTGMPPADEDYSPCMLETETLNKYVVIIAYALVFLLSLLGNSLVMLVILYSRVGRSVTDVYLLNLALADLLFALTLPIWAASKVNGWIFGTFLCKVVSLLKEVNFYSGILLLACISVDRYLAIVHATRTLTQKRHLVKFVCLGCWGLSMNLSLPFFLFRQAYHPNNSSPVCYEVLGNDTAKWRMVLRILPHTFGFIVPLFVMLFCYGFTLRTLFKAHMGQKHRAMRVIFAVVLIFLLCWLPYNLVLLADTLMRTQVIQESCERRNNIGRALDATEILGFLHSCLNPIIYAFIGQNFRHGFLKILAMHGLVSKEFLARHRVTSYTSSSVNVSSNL

IC50 [1]	IC50 [2]	Compound
96 nM	3900 nM	Cc1ccc([C@H](Nc2c(Nc3csc(C(=O)N(C)C)c3O)c(=O)c2=O)C2(C)COC2)o1
146 nM	3030 nM	Cc1ccc(C(Nc2c(Nc3cccc(C(=O)N(C)C)c3O)c(=O)c2=O)C2(C)COC2)s1 (stereo unspecified)

Compound	IC50 [1]	IC50 [2]
Cc1ccc([C@H](Nc2c(Nc3cccc(C(=O)N(C)C)c3O)c(=O)c2=O)C2(C)COC2)o1	72 nM	312 nM
